Laboratory results reported in ChEMBL document CHEMBL2346531, “Investigation of σ receptors agonist/antagonist activity through N-(6-methoxytetralin-1-yl)- and N-(6-methoxynaphthalen-1-yl)alkyl derivatives of polymethylpiperidines” (Bioorg Med Chem, 2013).
The source made the active and inactive calls. The calls are words filed in the database; no cut-off is given here.

Key:
MCF7 [1] = experiment: Antiproliferative activity against human MCF7 cells transfected with human sigma1 receptor after 48 hrs by MTT assay; format: functional, cell-based; design: Activity: concentration or dose not given beside the values; conditions: for EC50: Homo sapiens, MCF7, 48 h
MCF7 [2] = experiment: Antiproliferative activity against human MCF7 cells after 48 hrs by MTT assay; format: functional, cell-based; conditions: for EC50: Homo sapiens, MCF7, 48 h
[3] = Selectivity ratio of Ki for sigma 2 receptor in Wistar Hannover rat liver membrane to Ki for sigma 1 receptor in Dunkin guinea pig brain membrane without cerebellum; format: cell membranes
[4] = Displacement of [3H]DTG from sigma 2 receptor in Wistar Hannover rat liver membrane by competition binding assay; format: cell membranes
[5] = molecular target: Sigma non-opioid intracellular receptor 1 (Cavia porcellus, UniProt Q60492); experiment: Displacement of [3H]pentazocine from sigma 1 receptor in Dunkin guinea pig brain membrane without cerebellum by competition binding assay; format: cell membranes
Chain of Sigma non-opioid intracellular receptor 1 (Q60492 whole entry): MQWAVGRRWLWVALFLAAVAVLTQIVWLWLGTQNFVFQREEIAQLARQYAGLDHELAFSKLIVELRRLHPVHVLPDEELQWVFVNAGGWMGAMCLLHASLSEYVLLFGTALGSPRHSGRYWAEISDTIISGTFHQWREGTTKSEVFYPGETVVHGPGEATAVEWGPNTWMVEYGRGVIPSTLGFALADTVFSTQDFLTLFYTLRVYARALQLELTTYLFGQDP

MCF7 [6] = experiment: Activity at sigma 2 receptor in human MCF7 cells assessed as bardykinin-triggered Ca2+ mobilization at 1 uM pretreated for 10 mins measured every 5 secs by fluorescence analysis; format: cell-based
MCF7 [7] = experiment: Activity at sigma 2 receptor in human MCF7 cells assessed as Ca2+ mobilization by fluorescence analysis; format: cell-based
[8] = molecular target: Sigma non-opioid intracellular receptor 1 (Homo sapiens) (UniProt Q99720); experiment: Agonist activity at human sigma 1 receptor transfected in human MCF7 cells assessed as increase in bradykinin-triggered Ca2+ response at 1 uM pretreated for 10 mins measured every 5 secs by fluorescence analysis; format: cell-based
Chain of Sigma non-opioid intracellular receptor 1 (Homo sapiens) (Q99720 whole entry): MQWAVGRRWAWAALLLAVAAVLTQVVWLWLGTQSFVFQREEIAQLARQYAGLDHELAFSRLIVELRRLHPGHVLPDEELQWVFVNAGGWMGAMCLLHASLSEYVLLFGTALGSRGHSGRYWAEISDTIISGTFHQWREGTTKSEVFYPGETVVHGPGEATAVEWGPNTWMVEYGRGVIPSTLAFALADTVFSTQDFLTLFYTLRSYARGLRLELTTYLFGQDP

MCF7 [9] = experiment: Antagonist activity at sigma 2 receptor in human MCF7 cells assessed as effect on bradykinin-triggered Ca2+ response at 1 uM pretreated for 10 mins measured every 5 secs by fluorescence analysis; format: cell-based
[10] = molecular target: Sigma non-opioid intracellular receptor 1 (Homo sapiens) (UniProt Q99720); experiment: Activity at human sigma 1 receptor transfected in human MCF7 cells assessed as Ca2+ mobilization by fluorescence analysis; format: cell-based
MCF7 [11] = experiment: Agonist activity at sigma 2 receptor in human MCF7 cells assessed as decrease in bradykinin-induced Ca2+ response at 1 uM pretreated for 10 mins measured every 5 secs by fluorescence analysis in presence of 10 uM sigma 2 receptor antagonist, AC927; format: cell-based
MCF7 [12] = experiment: Agonist activity at sigma 2 receptor in human MCF7 cells assessed as decrease in bradykinin-induced Ca2+ response at 1 uM pretreated for 10 mins measured every 5 secs by fluorescence analysis; format: cell-based
MCF7 [13] = experiment: Antagonist activity at sigma 2 receptor in human MCF7 cells assessed as effect on bradykinin-triggered Ca2+ response at 10 uM pretreated for 10 mins measured every 5 secs by fluorescence analysis; format: cell-based
[14] = molecular target: Sigma non-opioid intracellular receptor 1 (Homo sapiens) (UniProt Q99720); experiment: Antagonist activity at human sigma 1 receptor transfected in human MCF7 cells assessed as decrease in bradykinin-triggered Ca2+ response at 1 uM pretreated for 10 mins measured every 5 secs by fluorescence analysis in presence of 1 uM sigma 1 receptor agonist, (+)-pentazocine; format: cell-based
[15] = molecular target: Sigma non-opioid intracellular receptor 1 (Homo sapiens) (UniProt Q99720); experiment: Antagonist activity at human sigma 1 receptor transfected in human MCF7 cells assessed as decrease in bradykinin-triggered Ca2+ response at 1 uM pretreated for 10 mins measured every 5 secs by fluorescence analysis; format: cell-based
[16] = molecular target: Sigma non-opioid intracellular receptor 1 (Homo sapiens) (UniProt Q99720); experiment: Agonist activity at human sigma 1 receptor transfected in human MCF7 cells assessed as increase in bradykinin-triggered Ca2+ response at 1 uM pretreated for 10 mins measured every 5 secs by fluorescence analysis in presence of 1 uM sigma 1 receptor antagonist, BD1063; format: cell-based

SMILES | EC50 (MCF7 [1]) [µM] | EC50 (MCF7 [2]) [µM] | Ratio Ki [3] | Ki [4] [µM] | Ki [5] [µM] | other results
COc1ccc2c(c1)CCCC2CCCN1C(C)(C)CCCC1(C)C (stereo not drawn) | > 100 | > 100 | 1.7 | 0.641 | 0.373 | 
Cc1ccccc1NC(=N)Nc1ccccc1C [DITOLYLGUANIDINE] |  |  |  | 0.0302 |  | 
COc1ccc2c(c1)CCCC2CCCCN1CCCCC1(C)C (stereo not drawn) | 100 | 100 | 9 | 0.0295 |  | Activity (MCF7 [1]): 14%; Activity (MCF7 [2]): 20%
CC(C)=CCN1CC[C@]2(C)c3cc(O)ccc3C[C@H]1[C@H]2C [(+)-PENTAZOCINE] | > 100 | > 100 |  |  |  | Activity (MCF7 [6]): inactive
COc1ccc2c(c1)CCCC2CCCN1[C@H](C)CCC[C@@H]1C (stereo partly drawn) | > 100 | > 100 | 0.8 | 0.0909 | 0.11 | Activity (MCF7 [7]): inactive; Activity [8]: Active; Activity (MCF7 [9]): Active; Activity [10]: inactive
COc1ccc2c(CCCCN3[C@H](C)CCC[C@@H]3C)cccc2c1.Cl | 100 | 100 | 0.7 | 0.0138 | 0.0185 | Activity (MCF7 [7]): inactive; Activity (MCF7 [1]): 12%; Activity (MCF7 [2]): 14%; inhibition (MCF7 [11]): inactive; Activity [8]: Active; inhibition (MCF7 [12]): Active; Activity [10]: inactive
c1ccc(CCN2CCCCC2)cc1 | > 100 | > 100 |  |  |  | Activity (MCF7 [13]): Active
COc1ccc2c(CCCCN3C(C)(C)CCCC3(C)C)cccc2c1 | > 100 | > 100 | 1 | 0.0907 | 0.0886 | 
COc1ccc2c(c1)CCCC2CCCCN1[C@H](C)CCC[C@@H]1C (stereo partly drawn) | 100 | > 100 | 1.3 | 0.0111 | 0.00867 | Activity (MCF7 [7]): inactive; Activity (MCF7 [1]): 14%; inhibition [14]: inactive; inhibition [15]: Active; Activity (MCF7 [9]): Active; Activity [10]: inactive
COc1ccc2c(c1)CCCC2CCCCN1C(C)(C)CCCC1(C)C (stereo not drawn) | > 100 | > 100 | 1.9 | 0.0698 | 0.0359 | 
COc1ccc2c(c1)CCCC2CCCN1CCCCC1(C)C (stereo not drawn) | > 100 | > 100 | 0.6 | 0.115 |  | 
COc1ccc2c(CCCCN3CCCCC3(C)C)cccc2c1 | 100 | 100 | 1.3 | 0.0286 |  | Activity (MCF7 [1]): 18%; Activity (MCF7 [2]): 19%
COc1ccc2c(CCCN3CCCCC3(C)C)cccc2c1 | > 100 | > 100 | 0.09 | 0.094 |  | 
COc1cccc2c1CCCC2CCCN1CCN(C2CCCCC2)CC1 (stereo not drawn) | 31.2 | 27.4 |  |  |  | 
COc1ccc2c(CCCN3[C@H](C)CCC[C@@H]3C)cccc2c1 | > 100 | > 100 | 6.1 | 0.0454 | 0.00743 | Activity (MCF7 [7]): inactive; Activity [16]: inactive; Activity [8]: Active; Activity (MCF7 [9]): Active; Activity [10]: inactive
COc1ccc2c(CCCN3C(C)(C)CCCC3(C)C)cccc2c1 | > 100 | > 100 | 2.1 | 0.495 | 0.236 | 
CN1CCN(CCc2ccc(Cl)c(Cl)c2)CC1 | 70 | > 100 |  |  |  | 
